Here are results for seven molecules from patent US10596152B2, “Selenium containing KGA/GDH dual inhibitors and the applications thereof” (HANGZHOU GAMMA BIOTECH CO., LTD., priority 2015, dated 2020).

Entries after “also recorded” stand apart in the source; their conditions may differ. Like-named read-outs stand apart in the source and are kept apart here.

One data set relates to L2 (Normal cell). Briefly: Growth inhibition of L2 normal cells. It is filed as cell-based. As for the experimental part: (§1) Tumor cells (1000 cells per well) which were first treated with the corresponding compound for 3 days, and then EZMTT detection reagents were added measure the cell growth.
The target in data set [1] is T1, KGA (Homo sapiens, UniProt O94925).
T1 sequence (O94925 55-669): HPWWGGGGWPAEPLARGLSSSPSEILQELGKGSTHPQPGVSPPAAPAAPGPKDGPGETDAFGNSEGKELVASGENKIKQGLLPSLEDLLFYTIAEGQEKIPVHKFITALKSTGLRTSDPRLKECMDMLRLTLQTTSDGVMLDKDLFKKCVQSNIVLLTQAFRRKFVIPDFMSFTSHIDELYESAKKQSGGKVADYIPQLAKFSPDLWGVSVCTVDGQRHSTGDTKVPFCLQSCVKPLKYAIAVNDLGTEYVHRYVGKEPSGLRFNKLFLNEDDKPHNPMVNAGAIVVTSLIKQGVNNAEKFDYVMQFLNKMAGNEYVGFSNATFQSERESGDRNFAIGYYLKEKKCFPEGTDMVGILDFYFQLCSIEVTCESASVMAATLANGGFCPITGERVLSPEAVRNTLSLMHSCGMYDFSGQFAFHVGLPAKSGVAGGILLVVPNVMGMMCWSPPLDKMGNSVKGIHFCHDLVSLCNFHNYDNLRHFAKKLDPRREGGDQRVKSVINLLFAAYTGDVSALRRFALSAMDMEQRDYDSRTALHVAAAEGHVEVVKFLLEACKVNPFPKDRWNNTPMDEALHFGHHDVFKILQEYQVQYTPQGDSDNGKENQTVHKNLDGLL
The experiment in a line: Binding to immobilized KGA by molecular interaction apparatus (ForteBio). The note with it: KGA immobilized on ForteBio chip. An excerpt:
We suspected that ebselen may not inhibit glutaminase. […] Therefore, based on the crystal structure of the allosteric site of glutaminase, we synthesized a series of new symmetric and asymmetric ebselen derivatives with the aim to make an ebselen derived KGA inhibitor. In the derivatives, the benzene ring at the 2-position of the original ebselen molecule was replaced by a straight-chain or branched alkyl substituent containing at least one carbon atom, or a long chain containing thioether, or a smaller cycloalkyl group, and the newly obtained derivatives are effective in binding to the allosteric site of glutaminase. […] Moreover, these inhibitors that bind the allosteric site of glutaminase had good selectivity and higher potency for inhibition of tumor cell growth (<100 nM), and no damage to normal cells (10 μM). These inhibitors also had significant activity in an immunodeficient mouse model with no toxicity. These inhibitors had good inhibitory activity for various types of glutamine-dependent cancer cells (80-90%), especially urinary system tumors. The binding diagram of GAC tetramers and BPTES is shown in FIG. 1, wherein “mark 1” is the active site of substrate binding; and “mark 2” is an allosteric site for BPTES binding.
Our Papers published are Anal. Chem. 2017, 89: 1689, ACS Chemical Biology, 2017, 12:3003
(Biolayer interferometry detects binding as a change in optical thickness at a sensor tip.)

For the next data set, the system named is JC82. The experiment in a line: Inhibition of growth of tumor cells, JC82. It is filed as cell-based. Conditions: 72 h, read-out: IC50, JC82. As to the method:
as §1

The subject of another data set is PC12. The experiment in a line: Inhibition of growth of tumor cells, PC12. It is filed as cell-based. The note with it: Rattus norvegicus, PC-12, 72 h, read-out: IC50, PC12. As for the experimental part: as §1
The test system of a further data set is T24 (Bladder cancer). Briefly: Inhibition of growth of tumor cells, T24 bladder cancer. It is filed as cell-based. As to the method:
as §1

The next data set concerns PC3. Briefly: Inhibition of growth of tumor cells, PC3. It counts as cell-based. The note with it: Homo sapiens, PC-3, 72 h, read-out: IC50, PC3. As for the experimental part: as §1
In the next data set the test system is A549. Briefly: Inhibition of growth of tumor cells, A549. The note with it: Homo sapiens, read-out: IC50, A549. It counts as cell-based. As for the experimental part: as §1
Another data set deals with Caki. The experiment in a line: Inhibition of growth of tumor cells, Caki. It is filed as cell-based. The note with it: 72 h, read-out: IC50, Caki. As to the method:
as §1

The test system of another data set is A549 tumor. The experiment in a line: Subcutaneous A549 tumor model in nude mice. It counts as in vivo. The note with it: immune deficient mice, 1 mg/kg subcutaneously near tumor daily, 7 days, FIG. 5. As for the experimental part:
A549 tumor cells (1,000,000) were inoculated in nude mice, and the tumor size was 10 mm×10 mm in 24th to 27th day. Then compound hexane-(3,3′-dimethyl) thioether selen in PBS solution (200 μl) was injected subcutaneously every day near the tumor with the dosage of 1 mg/kg.

The next data set relates to PC12 cells. Briefly: Protection of PC12 nerve cells under OGD (hypoxia-ischemia). It is filed as cell-based. Conditions: for Protection of PC12 cells under OGD: OGD hypoxia-ischemia condition. From the text: Then observed the growth of cellular neurite growth or neural synapse.
A further data set deals with T24 tumor. Briefly: Subcutaneous T24 tumor model in nude mice. It is filed as in vivo. Conditions: immune deficient mice, 1 mg/kg subcutaneously near tumor daily, 7 days, FIG. 6. As for the experimental part:
T24 tumor cells (1,000,000) were inoculated in nude mice, and the tumor size was 10 mm×10 mm in 24th to 27th day. Then compound hexane-(3,3′-dimethyl) thioether selen in PBS solution (200 μl) was injected subcutaneously every day near the tumor with the dosage of 1 mg/kg.

A further data set has as its target T2, glutaminase (Homo sapiens, UniProt O94925).
T2 sequence (O94925 55-669): T1 sequence (O94925 55-669)
Conditions: reported; read-out: Glutaminase inhibitor IC50; cited from earlier work.

Data set [2] deals with T1, KGA. The experiment in a line: Inhibition of KGA (glutaminase). It is filed as biochemical.
Data set [3] concerns glutamine dependent cancer cell. The note with it: reported; read-out: Inhibiting glutamine dependent cancer cell growth IC50; cited from earlier work.
The subject of data set [4] is normal cells. The experiment in a line: Toxicity to normal cells.
The next data set deals with TrxR. The note with it: reported; cited from earlier work.
Data set [5] has as its system normal cells.
Where [6] appears, read: 72 h, read-out: IC50, L2 (Normal).
Where [7] appears, read: Homo sapiens, T-24, 72 h, read-out: IC50, T24.
Where [8] appears, read: bladder cancer cell line table, read-out: L2 (Normal cell) IC50.
Where [9] appears, read: bladder cancer cell line table, read-out: T24 (Bladder cancer) IC50.

As to `Cc1cccc2[se]n(CCCCCCn3[se]c4cccc(C)c4c3=O)c(=O)c12` [Hexane-(3,3'-dimethyl) selen, Hexane-(3,3′-dimethyl) selen], the IC50 (as a rule, the concentration at which inhibition is half-maximal) is more than 10 µM in the data set on L2 (Normal cell) (setting [6]); 5 µM in the data set on JC82; 5 µM in the data set on PC12; 0.2 µM with T24 (Bladder cancer) (setting [7]); 2 µM in the data set on PC3; 0.5 µM with A549 (A549, 72 h). The IC50 with Caki was determined as 1 µM. Besides, on KGA [1], the “Binding to KGA / glutaminase” value is recorded as “distinct levels of combination with KGA enzyme”.

With `O=c1c2c(F)cccc2[se]n1CCCCCCn1[se]c2cccc(F)c2c1=O` [Hexane-(2,2'-difluoro) selen, Hexane-(2,2′-difluoro) selen], the IC50 with L2 (Normal cell) (setting [6]) is more than 10 µM; with JC82, 2 µM; in the data set on PC12, 5 µM; in the data set on T24 (Bladder cancer) (setting [7]), 0.01 µM; with PC3, 2 µM; in the data set with A549 (A549, 72 h) it was 0.5 µM. In addition, the IC50 in the data set with Caki came to 1 µM.

For `O=c1c2ccccc2[se]n1CCCSCCCn1[se]c2ccccc2c1=O` [Thioether selen], the “Inhibition of growth of A549 tumor” value in the data set on A549 tumor is on record as “inhibition of the growth of the A549 tumor”. The IC50 is more than 10 µM with L2 (Normal cell) (setting [6]); 5 µM in the data set with JC82; 5 µM with PC12; 0.5 µM in the data set with T24 (Bladder cancer) (setting [7]); 2 µM in the data set on PC3; 0.5 µM in the data set on A549 (A549, 72 h). Also, in the data set with Caki, the concentration for half-maximal inhibition (IC50) is 1 µM. In addition, the “Protection of PC12 neuronal cells under OGD condition” value with PC12 cells (words, FIG. 7) is “protection of PC12 neuronal cells”. The “Inhibition of growth of T24 tumor” value with T24 tumor is reported as “inhibition of the growth of the T24 tumor cells”.

For the molecule “1,6- tert butyl carbonate hexamethylendiamineselen”, the figures for the 50% inhibitory concentration (IC50) in the data set with L2 (Normal cell) (setting [8]) and in the data set on T24 (Bladder cancer) (setting [9]) were more than 10 µM and 10 µM, respectively. Also, in the data set on PC12 cells, the “Protection of PC12 cells under OGD” value is less than 100 nM.

In the case of `O=c1c2ccccc2[se]n1CCCCCCn1[se]c2c(F)cccc2c1=O` [Hexane - (2'-fluoro) selen, Hexane-(2′-fluoro) selen], the 50% inhibitory concentration (IC50) in the data set on L2 (Normal cell) (read-out: L2 (Normal cell) IC50) is more than 10 µM; in the data set on T24 (Bladder cancer) (read-out: T24 (Bladder cancer) IC50), 0.2 µM. Further, in the data set with PC12 cells, the “Protection of PC12 cells under OGD” value is given as less than 100 nM.

For `O=c1c2ccccc2[se]n1-c1ccccc1` [Ebselen, 2-phenylbenzoisoselenazol-3-one, reference compound], the IC50 is 0.009 µM at glutaminase; more than 10 µM with L2 (Normal cell) (72 h, L2 normal cells, 3 days treatment, read-out: IC50, L2 (Normal)); more than 10 µM in the data set with L2 (Normal cell) (setting [8]); 20 µM in data set [3]; more than 10 µM with JC82 (JC82 cells, 3 days treatment); more than 10 µM in the data set on PC12 (PC12 cells, 3 days treatment). Also, the IC50 with T24 (Bladder cancer) (Homo sapiens, T-24, 72 h, T24 cells, 3 days treatment, comparison with parent nucleus, read-out: IC50, T24) was more than 10 µM; in the data set on T24 (Bladder cancer) (setting [9]), more than 10 µM; with PC3 (PC3 cells, 3 days treatment) it was more than 10 µM; in the data set with A549 (72 h, A549 cells, 3 days treatment), more than 10 µM; in the data set with Caki (Caki cells, 3 days treatment), more than 10 µM. For the same molecule, at KGA [2], the “Inhibition of KGA” value is “do not inhibit KGA”. The “Toxicity to normal cells” value in the data set on normal cells [4] is “toxic to the normal cells”. The “Protection of PC12 cells under OGD” value in the data set on PC12 cells is reported as 1000 nM. The “Binding to KGA / glutaminase” value on KGA [1] was “not bound to the KGA; also recorded: cannot directly combine toglutaminase”. In the data set on TrxR, the “Inhibition of TrxR” value is recorded as “strong inhibitors of TrxR”.

Regarding `O=c1c2ccccc2[se]n1CCn1[se]c2ccccc2c1=O` [ethylselen], the “Inhibition of KGA” value at KGA [2] is on record as “do not inhibit KGA”. Moreover, the “Inhibition of TrxR” value with TrxR is recorded as “strong inhibitors of TrxR”. The “Toxicity to normal cells” value in the data set on normal cells [5] is “toxic to the normal cells”.
